Assay results as given in patent US11242351B2, “Tricyclic inhibitors of the BCL6 BTB domain protein-protein interaction and uses thereof” (priority 2017, dated 2022).
Read-outs that look alike come from different tables or passages of the source.

Experiments:
[1] = biological target: BCL6 BTB domain (biotin-thrombin-BCL6 amino acids 1-129) (Homo sapiens (Human), UniProt P41182); test: Surface Plasmon Resonance (SPR) assay; type: binding; conditions: Biacore T200, single cycle kinetic analysis
Procedure: Surface Plasmon Resonance (SPR) Assay
SPR studies were performed using a Biacore™ T200 instrument (GE Health Sciences Inc.). […] The Biacore flow rate was set at 100 μl/min. […] Curve fitting and KD calculations were performed with the Biacore T200 Evaluation software (GE Health Sciences Inc).

Karpas422 cells = test: Tumor cell growth inhibition assay; type: cell-based; conditions: Homo sapiens, KARPAS-422, 144 h, read-out: GI Karpas EC50
How it was run: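 Karpas422 cells were dosed over a 10-point concentration range (top 5 μM) and grown 6 days at 37 °C, 5% CO2, in Alpha-MEM with 10% FBS. Viability was read as ATPlite luminescence.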

[2] = test system: BCL6 reporter construct in SuDHL4-3×BCL6-TK-Luc cells; test: Cell-based luciferase assay (BCL6 reporter); conditions: 48 h, read-out: Luc IC50
How it was run: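 SuDHL4 cells stably carrying a 3×BCL6-site TK-promoter firefly luciferase reporter, 15,000 cells/well, dosed over 10 concentrations (top 10 μM) and cultured two days at 37° C, 5% CO2. Luciferase luminescence read after room-temperature equilibration with neolite reagent.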

[3] = Karpas422 cells, six days, ATPlite
[4] = SuDHL4-3×BCL6-TK-Luc cells, two days

Row | Compound | Kd [1] [µM] | EC50 (Karpas422 cells) [µM] | IC50 [2] [µM] | EC50 (Karpas422 cells; [3]) [µM] | IC50 [2, 4] [µM]
1 | C[C@H]1CN(CC2CC2)CCN1c1cc(NC(=O)Cn2cc(-c3cc(C(N)=O)c(O)c(Cl)c3F)c3c(=O)n4c(nc32)CCC4)c(Cl)c(F)n1 [I-29, (S)-3-chloro-5-(1-(2-((3-chloro-6-(4-(cyclopropylmethyl)-2-methylpiperazin-1-yl)-2-fluoropyridin-4-yl)amino)-2-oxoethyl)-4-oxo-4,6,7,8-tetra-hydro-1H-dipyrrolo [1,2-a:2′,3′-d]pyrimi-din-3-yl)-4-fluoro-2-hydroxybenzamide] | 0.24 | 2.59 | 2.15 | – | –
2 | CN(C)c1cc(NC(=O)Cn2cc(-c3cc(C(N)=O)c(O)c(F)c3F)c3c(=O)n4c(nc32)CCC4)c(Cl)c(F)n1 [I-22, 5-(1-(2-((3-chloro-6-(dimethylamino)-2-fluoropyridin-4-yl)amino)-2-oxoethyl)-4-oxo-4,6,7,8-tetrahydro-1H-dipyrrolo [1,2-a:2′,3′-d]pyrimidin-3-yl)-3,4-difluoro-2-hydroxybenzamide] | 0.0118 | – | – | 0.146 | 0.274
3 | C[C@H]1COCCN1c1cc(NC(=O)Cn2cc(-c3cc(C(N)=O)c(O)c(F)c3F)c3c(=O)n4c(nc32)CCC4)c(Cl)cn1 [I-3, (S)-5-(1-(2-((5-chloro-2-(3-methylmorpho-lino)pyridin-4-yl)amino)-2-oxoethyl)-4-oxo-4,6,7,8-tetrahydro-1H-dipyrrolo[1,2-a:2′,3′-d]pyrimidin-3-yl)-3,4-difluoro-2-hydroxy-benzamide] | 0.0252 | – | – | 0.502 | 0.708
4 | C[C@H]1CN(C)CCN1c1cc(NC(=O)Cn2cc(-c3cc(Cl)c(O)c(C(N)=O)c3)c3c(=O)n4c(nc32)CCC4)c(Cl)c(F)n1 [I-61, (S)-3-chloro-5-(1-(2-((3-chloro-6-(2,4-dimethylpiperazin-1-yl)-2-fluoropyridin-4-yl)amino)-2-oxoethyl)-4-oxo-4,6,7,8-tetrahydro-1H-dipyrrolo[1,2-a:2′,3′-d]pyrimidin-3-yl)-2-hydroxybenzamide] | 0.00371 | – | – | 0.0222 | 0.0417
5 | COc1c(-c2cn(CC(=O)Nc3cc(N4CCN(C)C[C@@H]4C)nc(F)c3Cl)c3nc4n(c(=O)c23)CCC4)cc(C(N)=O)c(O)c1F [I-91, (S)-5-(1-(2-((3-chloro-6-(2,4-dimethylpipera-zin-1-yl)-2-fluoro-pyridin-4-yl)amino)-2-oxoethyl)-4-oxo-4,6,7,8-tetrahydro-1H-dipyrrolo [1,2-a:2′,3′-d]pyrimidin-3-yl)-3-fluoro-2-hydroxy-4-methoxy-benzamide] | 0.0947 | 1.79 | 1.03 | – | –
6 | C[C@@H]1CN(C)C[C@H](C)N1c1cc(NC(=O)Cn2cc(-c3cc(C(N)=O)c(O)c4c3OCO4)c3c(=O)n4c(nc32)CCC4)c(Cl)c(F)n1 [I-98, 7-(1-(2-((3-chloro-2-fluoro-6-((2R,6S)-2,4,6-trimethylpiperazin-1-yl)pyridin-4-yl)amino)-2-oxoethyl)-4-oxo-4,6,7,8-tetrahydro-1H-dipyrrolo [1,2-a:2′,3′-d]pyrimidin-3-yl)-4-hydroxybenzo [d][1,3]dioxole-5-carboxamide] | 0.00096 | 0.00842 | 0.00816 | – | –
7 | C[C@H]1CN(C)CCN1c1cc(NC(=O)Cn2cc(-c3cc(C#N)c(O)c4c3OCO4)c3c(=O)n4c(nc32)CCC4)c(Cl)c(F)n1 [I-67, (S)-N-(3-chloro-6-(2,4-dimethyl-piperazin-1-yl)-2-fluoropyridin-4-yl)-2-(3-(6-cyano-7-hydroxybenzo[d][1,3]dioxol-4-yl)-4-oxo-4,6,7,8-tetrahydro-1H-dipyrrolo[1,2-a:2′,3′-d]pyrimidin-1-yl) acetamide] | 0.00672 | 0.874 | 0.541 | – | –
8 | CCN1CCN(c2cc(NC(=O)Cn3cc(-c4cc(Cl)c(O)c(C(N)=O)c4)c4c(=O)n5c(nc43)CCC5)c(Cl)c(F)n2)[C@@H](C)C1 [I-82, (S)-3-chloro-5-(1-(2-((3-chloro-6-(4-ethyl-2-methylpiperazin-1-yl)-2-fluoropyridin-4-yl)amino)-2-oxoethyl)-4-oxo-4,6,7,8-tetra-hydro-1H-dipyrrolo [1,2-a:2′,3′-d]pyrimi-din-3-yl)-2-hydroxy-benzamide] | 0.00413 | – | – | 0.0278 | 0.0631
9 | C[C@H]1CN(C)CCN1c1cc(NC(=O)Cn2cc(-c3cc(F)c(O)c(C(N)=O)c3)c3c(=O)n4c(nc32)CCC4)c(Cl)c(F)n1 [I-55, (S)-5-(1-(2-((3-chloro-6-(2,4-dimethyl-piperazin-1-yl)-2-fluoropyridin-4-yl)amino)-2-oxoethyl)-4-oxo-4,6,7,8-tetrahydro-1H-dipyrrolo [1,2-a:2′,3′-d]pyrimidin-3-yl)-3-fluoro-2-hydroxybenzamide] | 0.0015 | 0.0166 | 0.0135 | – | –
10 | COc1c(-c2cn(CC(=O)Nc3cc(N4CCN(C5COC5)C[C@@H]4C)nc(F)c3Cl)c3nc4n(c(=O)c23)CCC4)cc(C(N)=O)c(O)c1OC [I-72, (S)-5-(1-(2-((3-chloro-2-fluoro-6-(2-methyl-4-(oxetan-3-yl)pipera-zin-1-yl)pyridin-4-yl)amino)-2-oxoethyl)-4-oxo-4,6,7,8-tetra-hydro-1H-dipyrrolo [1,2-a:2′,3′-d]pyrimi-din-3-yl)-2-hydroxy-3,4-dimethoxy-benzamide] | 0.0851 | 0.429 | 1.56 | – | –
11 | CC1Cc2nc3c(c(-c4cc(C(N)=O)c(O)c5c4OCO5)cn3CC(=O)Nc3cc(N4CCN(C)C[C@@H]4C)nc(F)c3Cl)c(=O)n2C1 (stereo partly drawn) [I-87, 7-(1-(2-((3-chloro-6-((S)-2,4-dimethyl-piperazin-1-yl)-2-fluoropyridin-4-yl)amino)-2-oxoethyl)-7-methyl-4-oxo-4,6,7,8-tetrahydro-1H-dipyrrolo[1,2-a:2′,3′-d]pyrimidin-3-yl)-4-hydroxybenzo[d][1,3] dioxole-5-carboxamide] | 0.00077 | – | – | 0.00904 | 0.0106
12 | C[C@H]1CN(CCC(F)(F)F)CCN1c1cc(NC(=O)Cn2cc(-c3cc(C(N)=O)c(O)c(F)c3F)c3c(=O)n4c(nc32)CCC4)c(Cl)c(F)n1 [I-40, (S)-5-(1-(2-((3-chloro-2-fluoro-6-(2-methyl-4-(3,3,3-trifluoropropyl)piperazin-1-yl)pyridin-4-yl)amino)-2-oxoethyl)-4-oxo-4,6,7,8-tetrahydro-1H-dipyrrolo[1,2-a:2′,3′-d]pyrimidin-3-yl)-3,4-difluoro-2-hydroxy-benzamide] | 0.134 | – | – | 0.273 | 0.187
13 | C[C@H]1CNCCN1c1cc(NC(=O)Cn2cc(-c3cc(C(N)=O)c(O)c4c3OCO4)c3c(=O)n4c(nc32)CCC4)c(Cl)c(F)n1 [I-90, (S)-7-(1-(2-((3-chloro-2-fluoro-6-(2-methyl-piperazin-1-yl)pyridin-4-yl)amino)-2-oxo-ethyl)-4-oxo-4,6,7,8-tetrahydro-1H-dipyrrolo [1,2-a:2′,3′-d]pyrimidin-3-yl)-4-hydroxybenzo [d][1,3]dioxole-5-carboxamide] | 0.0007 | – | – | 0.022 | 0.0235
14 | C[C@H]1CN(C2COC2)CCN1c1cc(NC(=O)Cn2cc(-c3cc(C(N)=O)c(O)c(Cl)c3F)c3c(=O)n4c(nc32)CCC4)c(Cl)cn1 [I-14, (S)-3-chloro-5-(1-(2-((5-chloro-2-(2-methyl-4-(oxetan-3-yl)piperazin-1-yl)pyridin-4-yl)amino)-2-oxoethyl)-4-oxo-4,6,7,8-tetrahydro-1H-dipyrrolo[1,2-a:2′,3′-d]pyrimidin-3-yl)-4-fluoro-2-hydroxy-benzamide] | 0.0581 | – | – | 0.698 | 0.774
15 | C[C@H]1CN(C)CCN1c1cc(NC(=O)Cn2cc(-c3cc(C(N)=O)c(O)c(F)c3F)c3c(=O)n4c(nc32)CC(C)(C)C4)c(Cl)c(F)n1 [I-57, (S)-5-(1-(2-((3-chloro-6-(2,4-dimethyl-piperazin-1-yl)-2-fluoropyridin-4-yl)amino)-2-oxoethyl)-7,7-dimethyl-4-oxo-4,6,7,8-tetrahydro-1H-dipyrrolo[1,2-a:2′,3′-d]pyrimidin-3-yl)-3,4-difluoro-2-hydroxy-benzamide] | 0.0112 | 0.0621 | 0.114 | – | –
16 | C[C@H]1CN(CC(CO)CO)CCN1c1cc(NC(=O)Cn2cc(-c3cc(C(N)=O)c(O)c(F)c3F)c3c(=O)n4c(nc32)CCC4)c(Cl)c(F)n1 [I-46, (S)-5-(1-(2-((3-chloro-2-fluoro-6-(4-(3-hydroxy-2-(hydroxymethyl)propyl)-2-methylpiperazin-1-yl)pyridin-4-yl)amino)-2-oxoethyl)-4-oxo-4,6,7,8-tetrahydro-1H-dipyrrolo[1,2-a:2′,3′-d]pyrimidin-3-yl)-3,4-difluoro-2-hydroxybenzamide] | 0.00313 | – | – | 0.487 | 0.935
